Data on three molecules can be found in paper doi:10.1101/208439v1 (biorxiv, 2017).

Assay [1] addresses ASH1L (Homo sapiens, UniProt Q9NR48). Kind of assay: HotSpot [3H]SAM filter-binding methyltransferase assay. Type of assay: biochemical. Also noted: residues 2046-2330, N-terminal His tag, E. coli.
For assay [2], the target named is MLL1 Complex (Homo sapiens, UniProt Q03164). The assay is described as above. Type of assay: biochemical. Also noted: gene KMT2A; five-member complex, His-tagged subunits, E. coli; ASH2L isoform of NM_001105214; with WD repeat-containing protein 5; Set1/Ash2 histone methyltransferase complex subunit ASH2; Protein dpy-30 homolog.
Assay [3] deals with T1, NSD2 SET domain (Homo sapiens, UniProt O96028).
T1 construct: SET domain, residues 934-1241, N-terminal His tag, E. coli
T1 sequence (O96028 934-1241): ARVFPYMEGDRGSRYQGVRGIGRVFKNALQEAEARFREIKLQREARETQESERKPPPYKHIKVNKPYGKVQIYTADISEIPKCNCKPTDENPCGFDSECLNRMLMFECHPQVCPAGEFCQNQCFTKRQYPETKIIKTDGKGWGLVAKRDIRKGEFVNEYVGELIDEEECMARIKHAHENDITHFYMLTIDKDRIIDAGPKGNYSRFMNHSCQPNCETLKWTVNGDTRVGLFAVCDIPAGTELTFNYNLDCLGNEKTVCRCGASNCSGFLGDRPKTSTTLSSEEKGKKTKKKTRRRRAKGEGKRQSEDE
Kind of assay: SPR Biacore 8K, single-cycle kinetics, […] model. Type of assay: binding.

Assay [4] addresses T2, SET8 (Homo sapiens, UniProt Q9NQR1).
T2 construct: gene KMT5A
T2 sequence (Q9NQR1 1-393): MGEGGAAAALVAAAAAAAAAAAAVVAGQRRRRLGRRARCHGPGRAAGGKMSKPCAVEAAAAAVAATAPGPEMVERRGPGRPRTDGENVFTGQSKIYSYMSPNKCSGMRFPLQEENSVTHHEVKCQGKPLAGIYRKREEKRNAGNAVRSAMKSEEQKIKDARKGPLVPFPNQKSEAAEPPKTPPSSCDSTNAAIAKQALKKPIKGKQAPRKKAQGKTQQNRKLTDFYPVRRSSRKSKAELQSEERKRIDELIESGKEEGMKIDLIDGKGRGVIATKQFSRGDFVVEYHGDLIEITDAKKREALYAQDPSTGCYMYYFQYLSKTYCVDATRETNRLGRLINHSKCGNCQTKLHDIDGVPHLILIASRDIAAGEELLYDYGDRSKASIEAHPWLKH
Kind of assay: biochemical.

In assay [5] the target is T3, NSD2 (Homo sapiens, UniProt O96028).
T3 construct: full length (residues 2-1365), N-terminal His tag, insect cell/baculovirus
T3 sequence (O96028 2-1365): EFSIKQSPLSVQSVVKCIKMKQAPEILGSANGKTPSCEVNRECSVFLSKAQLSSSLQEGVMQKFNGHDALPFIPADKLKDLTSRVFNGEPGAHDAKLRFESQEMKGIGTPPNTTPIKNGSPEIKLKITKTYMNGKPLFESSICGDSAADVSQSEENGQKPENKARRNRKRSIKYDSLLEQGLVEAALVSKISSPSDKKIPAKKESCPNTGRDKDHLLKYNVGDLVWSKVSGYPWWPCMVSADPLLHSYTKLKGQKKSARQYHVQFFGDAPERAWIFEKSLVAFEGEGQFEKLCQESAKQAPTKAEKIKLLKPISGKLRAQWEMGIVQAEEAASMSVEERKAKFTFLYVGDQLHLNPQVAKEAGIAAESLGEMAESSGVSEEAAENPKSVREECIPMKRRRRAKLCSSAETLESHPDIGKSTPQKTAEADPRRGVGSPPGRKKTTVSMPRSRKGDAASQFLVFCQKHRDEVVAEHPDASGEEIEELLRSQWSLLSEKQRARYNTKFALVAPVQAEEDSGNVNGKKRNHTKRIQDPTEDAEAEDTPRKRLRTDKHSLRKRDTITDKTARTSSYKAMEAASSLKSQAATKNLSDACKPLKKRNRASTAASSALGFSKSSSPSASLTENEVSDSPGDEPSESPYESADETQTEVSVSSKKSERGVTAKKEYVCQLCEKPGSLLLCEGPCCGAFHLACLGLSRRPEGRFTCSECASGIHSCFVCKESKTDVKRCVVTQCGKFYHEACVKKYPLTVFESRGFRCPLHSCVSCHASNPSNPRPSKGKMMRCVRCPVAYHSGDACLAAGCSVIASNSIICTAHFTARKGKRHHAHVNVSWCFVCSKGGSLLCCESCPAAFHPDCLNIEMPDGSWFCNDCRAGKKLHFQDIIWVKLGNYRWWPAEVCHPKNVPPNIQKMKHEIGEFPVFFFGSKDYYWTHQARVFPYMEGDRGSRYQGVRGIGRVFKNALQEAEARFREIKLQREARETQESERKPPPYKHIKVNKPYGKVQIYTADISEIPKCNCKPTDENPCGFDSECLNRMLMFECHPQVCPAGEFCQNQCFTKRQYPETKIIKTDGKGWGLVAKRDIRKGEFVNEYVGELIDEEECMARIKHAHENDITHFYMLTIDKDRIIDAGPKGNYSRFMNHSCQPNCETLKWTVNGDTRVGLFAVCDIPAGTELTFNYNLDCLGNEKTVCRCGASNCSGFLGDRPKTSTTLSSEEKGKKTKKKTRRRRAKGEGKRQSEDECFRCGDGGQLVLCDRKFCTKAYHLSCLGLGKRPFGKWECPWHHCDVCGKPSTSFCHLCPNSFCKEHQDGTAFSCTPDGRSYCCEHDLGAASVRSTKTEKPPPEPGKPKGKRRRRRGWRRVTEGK
As to the kind of experiment: HotSpot [3H]SAM filter-binding methyltransferase assay. To be noted: nucleosomes […], […] SAM, pH […] DTT, […] °C. Type of assay: biochemical.

Assay [6] has as its target DNMT3b/3L (Homo sapiens, UniProt Q9UBC3). As to the kind of experiment: biochemical.
The mark [7] stands for this setting: read-out: DA3003-1 IC50, inhibitor.
Setting [8] is: nucleosomes, […] SAM, pH […] MgCl2, […] DTT, […] °C, single experiment.

The structures appear in SMILES notation. Where two headings read alike, the source gives them in different places.

MLL1 Complex, sequence (Q9UBL3 96-628): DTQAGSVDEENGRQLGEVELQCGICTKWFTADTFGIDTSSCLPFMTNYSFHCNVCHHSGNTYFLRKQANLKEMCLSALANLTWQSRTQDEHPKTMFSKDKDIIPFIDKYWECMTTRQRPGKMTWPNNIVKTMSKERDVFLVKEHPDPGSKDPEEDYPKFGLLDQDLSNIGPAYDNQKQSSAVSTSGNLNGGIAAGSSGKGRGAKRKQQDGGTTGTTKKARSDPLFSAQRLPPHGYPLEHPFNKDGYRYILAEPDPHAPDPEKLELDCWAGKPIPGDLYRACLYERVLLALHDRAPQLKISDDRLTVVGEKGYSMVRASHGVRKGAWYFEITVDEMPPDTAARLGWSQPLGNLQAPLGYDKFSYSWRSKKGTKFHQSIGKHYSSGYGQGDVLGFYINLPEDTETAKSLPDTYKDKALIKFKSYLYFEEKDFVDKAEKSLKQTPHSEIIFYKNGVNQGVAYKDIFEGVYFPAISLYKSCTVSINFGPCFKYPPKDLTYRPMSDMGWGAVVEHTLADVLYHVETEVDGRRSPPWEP
MLL1 Complex, sequence (Q03164 3745-3969): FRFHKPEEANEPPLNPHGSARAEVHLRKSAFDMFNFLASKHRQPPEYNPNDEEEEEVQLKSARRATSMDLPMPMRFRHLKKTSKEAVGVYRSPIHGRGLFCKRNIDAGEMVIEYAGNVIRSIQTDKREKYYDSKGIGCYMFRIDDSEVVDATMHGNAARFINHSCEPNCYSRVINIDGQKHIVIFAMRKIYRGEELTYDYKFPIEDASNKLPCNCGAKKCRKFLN
MLL1 Complex, sequence (Q9C005 whole entry, further chain, the tested form may be a part, canonical isoform): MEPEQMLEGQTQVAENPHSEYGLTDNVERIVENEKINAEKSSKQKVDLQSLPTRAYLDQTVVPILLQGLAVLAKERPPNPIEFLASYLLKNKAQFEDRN
MLL1 Complex, sequence (Q15291 whole entry, further chain, the tested form may be a part, canonical isoform): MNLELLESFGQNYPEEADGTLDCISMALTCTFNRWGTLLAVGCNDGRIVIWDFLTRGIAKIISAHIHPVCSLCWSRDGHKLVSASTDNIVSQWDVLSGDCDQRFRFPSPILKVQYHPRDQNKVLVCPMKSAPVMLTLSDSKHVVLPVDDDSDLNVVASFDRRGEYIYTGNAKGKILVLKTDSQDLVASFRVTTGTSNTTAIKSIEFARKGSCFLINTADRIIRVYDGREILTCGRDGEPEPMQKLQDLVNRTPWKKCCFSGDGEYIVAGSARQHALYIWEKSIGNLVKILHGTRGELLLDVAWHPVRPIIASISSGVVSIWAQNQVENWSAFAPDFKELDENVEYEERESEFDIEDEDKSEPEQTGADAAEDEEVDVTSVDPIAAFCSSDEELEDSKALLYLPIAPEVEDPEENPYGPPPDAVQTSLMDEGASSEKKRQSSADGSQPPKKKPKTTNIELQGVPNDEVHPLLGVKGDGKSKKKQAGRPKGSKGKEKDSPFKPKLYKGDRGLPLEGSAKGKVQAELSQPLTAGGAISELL

By IC50 is commonly meant the midpoint of a concentration-inhibition curve. What is called Kd is the equilibrium constant for the complex coming apart. Low values mean tighter binding, high ones weaker binding. Regarding `CC1(C)CCC(CN2CCN(c3ccc(C(=O)NS(=O)(=O)c4ccc(NCC5CCOCC5)c([N+](=O)[O-])c4)c(Oc4cnc5[nH]ccc5c4)c3)CC2)=C(c2ccc(Cl)cc2)C1` [ABT-199], the half-inhibitory concentration (IC50) was found to be 3.3 µM in assay [1], 0.72 µM in assay [2], 5.3 µM in assay [4] and 1.7 µM in assay [5]. The molecule further returned a Kd in assay [3] of 8.3 µM.

As for `O=C1C(Cl)=C(NCCN2CCOCC2)C(=O)c2ncccc21` [DA3003-1], the IC50 in assay [6] (setting [7]) stood at 0.72 µM; in assay [1], 0.2 µM; in assay [2] it was 0.25 µM; in assay [4] (setting [7]) it was 4.4 µM; in assay [5] (compound is redox-active), 0.17 µM.

`COc1cccc(-n2nc(C(=O)O)cc2-c2ccc(C3CCCCC3)c(Cl)c2)c1` [TC LPA5 4]: the IC50 in assay [6] was found to be 30 µM; in assay [1] (setting [8]), 9.2 µM; in assay [2] (setting [8]), 3.2 µM; in assay [4], 44 µM; in assay [5] it was 8.5 µM. In assay [3] (immobilized SET domain, pH […] °C, […] MgCl2, […] TCEP, […] DMSO), this molecule showed a Kd of 8.4 µM.
